{"source": "paper PMC10951314", "about": "(Nature Communications, 2024)", "key": {"[1]": {"target": "T1, MavL42-435 (Legionella pneumophila, UniProt Q5ZSJ1)", "T1 construct": "gene lpg2526", "T1 sequence (Q5ZSJ1 42-435 limits assumed)": "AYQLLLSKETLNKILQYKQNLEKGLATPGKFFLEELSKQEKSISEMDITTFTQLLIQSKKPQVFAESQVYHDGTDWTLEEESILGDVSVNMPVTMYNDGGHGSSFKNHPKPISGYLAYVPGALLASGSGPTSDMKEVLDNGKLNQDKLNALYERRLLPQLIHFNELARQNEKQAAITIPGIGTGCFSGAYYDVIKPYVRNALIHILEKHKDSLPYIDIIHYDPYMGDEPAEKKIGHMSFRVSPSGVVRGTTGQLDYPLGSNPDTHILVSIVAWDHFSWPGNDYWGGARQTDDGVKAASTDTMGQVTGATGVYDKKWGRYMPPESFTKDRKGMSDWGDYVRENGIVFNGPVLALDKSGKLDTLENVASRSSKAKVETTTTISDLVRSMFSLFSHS"}, "[2]": {"target": "T2, MavL42-435-UbVME (Legionella pneumophila, UniProt Q5ZSJ1)", "T2 construct": "gene lpg2526"}}, "data": [{"smiles": "Nc1ncnc2c1ncn2[C@@H]1O[C@H](COP(=O)(O)OP(=O)(O)OC[C@H]2OC(O)[C@H](O)[C@@H]2O)[C@@H](O)[C@H]1O", "note": "(some centres unmarked) [ADPR]", "values": [{"measurement": "Kd", "setting": "[1]", "value": 25.8, "unit": "µM"}, {"measurement": "X-ray crystal structure, 2.15 Å (crystal soak)", "setting": "[2]", "value": "we observed electron density for ADPR in one of the MavL-UbVME subunits"}]}]}
